Values after ≈ are worked out from the molar mass of the structure shown. Like-named read-outs stand apart in the source and are kept apart here.
Columns and labels:
Assay type in all cases: cell-based
[1] = system: Pseudomonas aeruginosa (PRD-10); test: Minimum inhibitory concentration (MIC) in nutrient agar, Pseudomonas aeruginosa PRD-10; details: 48 h
Description: (§1) The antimicrobial activity of the compounds of the present invention is set forth as the minimum inhibitory concentration (MIC) for the active compounds and is determined for nine (9) bacteria, using nutrient agar, and seven (7) yeast and fungi, using malt yeast agar. This determination is conducted using a one percent solution of the test compound prepared in a mixture of acetone and water.
(§2) Nutrient agar is prepared at pH 6.8, representing a neutral medium, and at pH 8.2, representing an alkaline medium. The nutrient agars are prepared by adding 23 g of nutrient agar to one-liter of deionized water. In addition, the alkaline medium is prepared by adjusting a 0.04M solution of N-[tris-(hydroxymethyl)methyl]glycine buffered deionized water with concentrated sodium hydroxide to a pH of 8.5.
(§3) The test tubes containing the agar are cooled in a water bath until the temperature of the agar is 48° C. Then, an appropriate amount of the one percent solution of the test compound is added (except in the controls where no compound is added) to the respective test tubes so that the final concentrations are 500, […], 100, 50, 25, 10, 5, 2.5, 1.0 and zero parts per million of the test compound in the agar, thus having a known concentration of test compound dispersed therein. The contents of the test tubes are then transferred to respective petri plates. After drying for 24 hours, the petri plates containing nutrient agar are inoculated with bacteria and those containing malt yeast agar are inoculated with yeast and fungi.
(§4) The inoculation with bacteria is accomplished by using the following procedure. Twenty-four hour-cultures of each of the bacteria are prepared by incubating the respective bacteria in tubes containing nutrient broth for 24 hours at 30° C. in a shaker. Dilutions of each of the 24 hour-cultures are made so that nine separate suspensions (one for each of the nine test bacteria) are made, each containing 10^8 colony forming units (CFU) per mL of suspension of a particular bacteria. Aliquots of 0.3 mL of each of the bacterial suspensions are used to fill the individual wells of Steer's Replicator. For each microbial suspension, 0.3 mL was used to fill three wells (i.e., three wells of 0.3 mL each) so that for the nine different bacteria, 27 wells are filled. The Steer's Replicator is then used to inoculate both the neutral and alkaline pH nutrient agar petri plates.
(§5) The inoculated petri plates are incubated at 30° C. for 48 hours and then read to determine if the test compound which is incorporated into the agar prevented growth of the respective bacteria.

[2] = system: Salmonella choleraesuis (Se); test: Minimum inhibitory concentration (MIC) in nutrient agar, Salmonella choleraesuis; details: Salmonella enterica, 48 h
Description: as §1, §2, §3, §4, §5

Aspergillus niger (An) = test: Minimum inhibitory concentration (MIC) in malt yeast agar, Aspergillus niger
Description: as §1
(§6) Malt yeast agar is prepared at pH 5.5 by adding 3 g yeast extract and 45 g malt agar per liter of deionized water. The specific agar is dispensed in 30 mL aliquots into 25×200 mm test tubes, capped and autoclaved for 15 minutes at 115° C.
as §3
(§7) The inoculation with the yeast and fungi is accomplished as follows. Cultures of yeast and fungi are incubated for seven days on malt yeast agar at 30° C. These cultures are used to prepare suspensions by the following procedure. A suspension of each organism is prepared by adding 10 mL of sterile saline and 10 microliters of octylphenoxy polyethoxy ethanol to the agar slant of yeast or fungi. The sterile saline/octylphenoxy potyethoxy ethanol solution is then agitated with a sterile swab to suspend the microorganism grown on the slant. Each resulting suspension is diluted into sterile saline (1 part suspension: 9 parts sterile saline). Aliquots of these dilutions are placed in individual wells of Steer's Replicator and petri plates inoculated as previously described. The petri plates are incubated at 30° C. and read after 48 hours for yeast and 72 hours for fungi.

[3] = system: Penicillium chrysogenum (Pc); test: Minimum inhibitory concentration (MIC) in malt yeast agar, Penicillium chrysogenum
Description: as §1, §6, §3, §7

Candida albicans (Ca) = test: Minimum inhibitory concentration (MIC) in malt yeast agar, Candida albicans
Description: as §1, §6, §3, §7

[4] = system: Klebsiella pneumoniae (Kp); test: Minimum inhibitory concentration (MIC) in nutrient agar, Klebsiella pneumoniae
Description: as §1, §2, §3, §4, §5

Proteus vulgaris (Pv) = test: Minimum inhibitory concentration (MIC) in nutrient agar, Proteus vulgaris; details: 48 h
Description: as §1, §2, §3, §4, §5

[5] = system: Pseudomonas aeruginosa (Pa); test: Minimum inhibitory concentration (MIC) in nutrient agar, Pseudomonas aeruginosa; details: 30° C., 48 hours, read-out: Minimum Inhibitory Concentration, Pa
Description: as §1, §2, §3, §4, §5

[6] = system: Staphylococcus aureus (Sa); test: Minimum inhibitory concentration (MIC) in nutrient agar, Staphylococcus aureus
Description: as §1, §2, §3, §4, §5

[7] = system: Aureobasidium pullulan (Ap); test: Minimum inhibitory concentration (MIC) in malt yeast agar, Aureobasidium pullulan
Description: as §1, §6, §3, §7

Fusarium oxysporum (Fo) = test: Minimum inhibitory concentration (MIC) in malt yeast agar, Fusarium oxysporum; details: 72 h, pH 5.5, read-out: Minimum Inhibitory Concentration, Fo
Description: as §1, §6, §3, §7

Bacillus subtilis (Bs) = test: Minimum inhibitory concentration (MIC) in nutrient agar, Bacillus subtilis
Description: as §1, §2, §3, §4, §5

Escherichia coli (Ec) = test: Minimum inhibitory concentration (MIC) in nutrient agar, Escherichia coli
Description: as §1, §2, §3, §4, §5

[8] = system: Enterobacter aerogenes (Ea); test: Minimum inhibitory concentration (MIC) in nutrient agar, Enterobacter aerogenes; details: Klebsiella aerogenes, 48 h
Description: as §1, §2, §3, §4, §5

Trichoderma viride (Tv) = test: Minimum inhibitory concentration (MIC) in malt yeast agar, Trichoderma viride; details: 72 h, pH 5.5, read-out: Minimum Inhibitory Concentration, Tv
Description: as §1, §6, §3, §7

[9] = system: Saccharomyces cerevisiae (Sc); test: Minimum inhibitory concentration (MIC) in malt yeast agar, Saccharomyces cerevisiae; details: pH 5.5, malt yeast agar, 30° C., 48 hours for yeast, read-out: Minimum Inhibitory Concentration, SC
Description: as §1, §6, §3, §7

[10] = pH 6.8, read-out: Minimum Inhibitory Concentration, PRD
[11] = pH 8.2, read-out: Minimum Inhibitory Concentration, PRD
[12] = pH 6.8, read-out: Minimum Inhibitory Concentration, SC
[13] = pH 8.2, read-out: Minimum Inhibitory Concentration, SC
[14] = 72 h, pH 5.5, read-out: Minimum Inhibitory Concentration, An
[15] = 48 h, pH 5.5, read-out: Minimum Inhibitory Concentration, Ca
[16] = 48 h, pH 8.2, read-out: Minimum Inhibitory Concentration, Kp
[17] = pH 6.8, nutrient agar, 30° C., 48 hours, read-out: Minimum Inhibitory Concentration, Kp
[18] = pH 6.8, read-out: Minimum Inhibitory Concentration, Pv
[19] = pH 8.2, read-out: Minimum Inhibitory Concentration, Pv
[20] = 48 h, pH 8.2, read-out: Minimum Inhibitory Concentration, Sa
[21] = pH 6.8, nutrient agar, 30° C., 48 hours, read-out: Minimum Inhibitory Concentration, Sa
[22] = pH 5.5, malt yeast agar, 30° C., read-out: Minimum Inhibitory Concentration, Ap
[23] = 48 h, pH 6.8, read-out: Minimum Inhibitory Concentration, Bs
[24] = 48 h, pH 8.2, read-out: Minimum Inhibitory Concentration, Bs
[25] = 48 h, pH 6.8, read-out: Minimum Inhibitory Concentration, Ec
[26] = 48 h, pH 8.2, read-out: Minimum Inhibitory Concentration, Ec
[27] = pH 6.8, read-out: Minimum Inhibitory Concentration, Ea
[28] = pH 8.2, read-out: Minimum Inhibitory Concentration, Ea
[29] = pH 5.5, malt yeast agar, 30° C., 72 hours for fungi, read-out: Minimum Inhibitory Concentration, PC

| Compound | MIC [1, 10] [µg/mL] | MIC [1, 11] [µg/mL] | MIC [2, 12] [µg/mL] | MIC [2, 13] [µg/mL] | MIC (Aspergillus niger (An); [14]) [µg/mL] | MIC [4, 16] [µg/mL] | MIC [4, 17] [µg/mL] | MIC (Proteus vulgaris (Pv); [18]) [µg/mL] | MIC (Proteus vulgaris (Pv); [19]) [µg/mL] | MIC ([5]; pH 6.8, nutrient agar) [µg/mL] | MIC ([5]; pH 8.2, nutrient agar) [µg/mL] | MIC [6, 20] [µg/mL] | MIC [6, 21] [µg/mL] | MIC (Fusarium oxysporum (Fo)) [µg/mL] | MIC (Bacillus subtilis (Bs); [24]) [µg/mL] | MIC (Escherichia coli (Ec); [25]) [µg/mL] | MIC [8, 27] [µg/mL] | MIC [8, 28] [µg/mL] | MIC (Trichoderma viride (Tv)) [µg/mL] | MIC [9] [µg/mL] | other results |
| --- | --- | --- | --- | --- | --- | --- | --- | --- | --- | --- | --- | --- | --- | --- | --- | --- | --- | --- | --- | --- | --- |
| COc1ccc(-c2nsnc2SCSC#N)cc1 [Example XXIII, 4-(4-Methoxyphenyl)-3-thiocyanatomethylthio-1,2,5-thiadiazole] | > 500 | > 500 | > 500 | > 500 | 25 (≈ 84.6 µM) | > 500 | > 500 | > 500 | > 500 | > 500 | > 500 | > 500 | > 500 | 100 (≈ 339 µM) | 250 (≈ 846 µM) | > 500 | > 500 | 500 (≈ 1690 µM) | 250 (≈ 846 µM) | 9 (≈ 30.5 µM) | MIC ([3]; 72 h, pH 5.5, read-out: Minimum Inhibitory Concentration, PC): 50 µg/mL (≈ 169 µM); MIC (Candida albicans (Ca); [15]): 250 µg/mL (≈ 846 µM); MIC [7, 22]: 9 µg/mL (≈ 30.5 µM); MIC (Bacillus subtilis (Bs); [23]): 500 µg/mL (≈ 1690 µM); MIC (Escherichia coli (Ec); [26]): > 500 µg/mL |
| CS(=O)(=O)c1ccc(-c2nsnc2SC#N)cc1 [Example XI, 4-(4-Methylsulfonylphenyl)-3-thiocyanato-l,2,5-thiadiazole] | 500 (≈ 1680 µM) | 500 (≈ 1680 µM) | 500 (≈ 1680 µM) | 500 (≈ 1680 µM) | – | 500 (≈ 1680 µM) | 250 (≈ 841 µM) | 500 (≈ 1680 µM) | 500 (≈ 1680 µM) | 500 (≈ 1680 µM) | 500 (≈ 1680 µM) | 500 (≈ 1680 µM) | 100 (≈ 336 µM) | 100 (≈ 336 µM) | 500 (≈ 1680 µM) | 500 (≈ 1680 µM) | 500 (≈ 1680 µM) | 500 (≈ 1680 µM) | 250 (≈ 841 µM) | 250 (≈ 841 µM) | MIC (Aspergillus niger (An); pH 5.5, malt yeast agar, 30° C., 72 hours for fungi, read-out: Minimum Inhibitory Concentration, An): 500 µg/mL (≈ 1680 µM); MIC [3, 29]: 500 µg/mL (≈ 1680 µM); MIC (Candida albicans (Ca); pH 5.5, malt yeast agar, 30° C., 48 hours for yeast, read-out: Minimum Inhibitory Concentration, Ca): 500 µg/mL (≈ 1680 µM); MIC ([7]; pH 5.5, read-out: Minimum Inhibitory Concentration, Ap): 50 µg/mL (≈ 168 µM); MIC (Bacillus subtilis (Bs); pH 6.8, nutrient agar, 30° C., 48 hours, read-out: Minimum Inhibitory Concentration, Bs): 25 µg/mL (≈ 84.1 µM); MIC (Escherichia coli (Ec); [26]): 500 µg/mL (≈ 1680 µM) |
| N#CSCSc1nsnc1-c1cccs1 [Example XXX, 4-(2-Thiophene)-3-thiocyanatomethylthio-1,2,5-thiadiazole] | 500 (≈ 1840 µM) | > 500 | 500 (≈ 1840 µM) | > 500 | 50 (≈ 184 µM) | > 500 | 500 (≈ 1840 µM) | 500 (≈ 1840 µM) | > 500 | 500 (≈ 1840 µM) | > 500 | > 500 | 500 (≈ 1840 µM) | 100 (≈ 368 µM) | 500 (≈ 1840 µM) | 500 (≈ 1840 µM) | 500 (≈ 1840 µM) | > 500 | 250 (≈ 921 µM) | 9 (≈ 33.2 µM) | MIC [3, 29]: 9 µg/mL (≈ 33.2 µM); MIC (Candida albicans (Ca); [15]): 100 µg/mL (≈ 368 µM); MIC [7, 22]: 25 µg/mL (≈ 92.1 µM); MIC (Bacillus subtilis (Bs); [23]): 500 µg/mL (≈ 1840 µM); MIC (Escherichia coli (Ec); pH 8.2, nutrient agar, 30° C., 48 hours, read-out: Minimum Inhibitory Concentration, Ec): 250 µg/mL (≈ 921 µM) |

— US5488060A, “Substituted thiadiazoles, compositions containing them and their use as antimicrobial and marine antifouling agents” (The Dow Chemical Company, priority 1994, dated 1996)
